For assay [1], the target named is T1, IRAK4 (Homo sapiens, UniProt Q9NWZ3).
T1 sequence (Q9NWZ3 1-460): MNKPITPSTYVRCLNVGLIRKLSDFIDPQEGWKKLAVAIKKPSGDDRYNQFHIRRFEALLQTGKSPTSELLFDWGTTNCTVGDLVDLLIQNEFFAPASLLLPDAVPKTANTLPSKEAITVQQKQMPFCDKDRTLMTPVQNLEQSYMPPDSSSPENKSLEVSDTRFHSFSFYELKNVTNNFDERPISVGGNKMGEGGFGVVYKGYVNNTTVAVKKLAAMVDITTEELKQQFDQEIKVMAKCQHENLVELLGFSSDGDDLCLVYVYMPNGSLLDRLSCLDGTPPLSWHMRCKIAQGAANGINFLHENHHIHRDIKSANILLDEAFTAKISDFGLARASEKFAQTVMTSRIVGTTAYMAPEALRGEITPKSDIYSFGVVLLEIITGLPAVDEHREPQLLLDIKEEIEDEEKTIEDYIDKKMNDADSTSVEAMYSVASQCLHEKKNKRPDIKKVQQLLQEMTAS
In words: 2-hour 10 μM ATP Biochemical Assay (MesoScale Detection format; IRAK4 phosphorylation of biotin labeled IRAK1 activation loop peptide). To be noted: IRAK4 MSD BIOCHEMICAL (10 μM ATP) IC50 (μM), 1 nM IRAK4, 2 hours. In a few lines:
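Electrochemiluminescent MSD readout: after streptavidin capture, phosphothreonine on the biotin-labelled IRAK1 activation-loop peptide detected by rabbit antibody and Sulfo-Tag secondary. Phosphorylation ran 2 h with 10 μM ATP before EDTA quench.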

Assay [2] addresses T1, IRAK4. Nature of the assay: 2-hour 1 mM ATP IRAK4 Biochemical assay (as above, but with 100 pM IRAK4 and 1 mM ATP). To be noted: IRAK4 MSD BIOCHEMICAL (1 mM ATP) IC50 (μM), 100 pM IRAK4, 2 hours. Put shortly: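 MSD electrochemiluminescence read-out: biotinylated peptide product bound to streptavidin plates, probed with anti-P-Thr rabbit antibody and Sulfo-Tag goat anti-rabbit. Kinase reaction used 1 mM ATP and 100 pM IRAK4 over 2 hours before EDTA quench.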

The structures appear in SMILES notation.

Take `CCOc1cc2nc(CCOC)cn2cc1NC(=O)c1cccc(C(F)F)n1` [Example 13, 6-(difluoromethyl)-N-(7-ethoxy-2-(2-methoxyethyl)imidazo[1,2-a]pyridin-6-yl)picolinamide]: the IC50 against IRAK4 [1] was found to be 0.002 µM; on IRAK4 [2] it was 0.003 µM.

Consider `CCOc1cc2nc(C(C)(C)CO)cn2cc1NC(=O)c1cccc(C(F)F)n1` [Example 17, 6-(difluoromethyl)-N-(7-ethoxy-2-(1-hydroxy-2-methylpropan-2-yl)imidazo[1,2-a]pyridin-6-yl)picolinamide], for which the IC50 against IRAK4 [1] amounted to 0.005 µM; against IRAK4 [2] it was 0.016 µM.

For `CCOc1cc2nc(CO)cn2cc1NC(=O)c1cccc(C(F)(F)F)n1` [Example 18, N-(7-ethoxy-2-(hydroxymethyl)imidazo[1,2-a]pyridin-6-yl)-6-(trifluoromethyl)picolinamide], the values for the IC50 on IRAK4 [1] and on IRAK4 [2] were 0.004 µM and 0.014 µM, respectively.

With `CCOc1cc2nc(C(C)(C)O)cn2cc1NC(=O)c1cccc(C(F)(F)F)n1` [Example 19, N-(7-ethoxy-2-(2-hydroxypropan-2-yl)imidazo[1,2-a]pyridin-6-yl)-6-(trifluoromethyl)picolinamide], the IC50 was 0.009 µM on IRAK4 [1] and 0.044 µM against IRAK4 [2].

Turning to `CCOc1cc2nc(CF)cn2cc1NC(=O)c1cccc(C(F)(F)F)n1` [Example 20, N-(7-ethoxy-2-(fluoromethyl)imidazo[1,2-a]pyridin-6-yl)-6-(trifluoromethyl)picolinamide], the IC50 against IRAK4 [1] stood at 0.003 µM; against IRAK4 [2], 0.006 µM.

Turning to `CCOc1cc2nc(CC3CCOC3)cn2cc1NC(=O)c1coc(-c2cnn(C)c2)n1` (stereo not shown) [Example 22, N-(7-ethoxy-2-((tetrahydrofuran-3-yl)methyl)imidazo[1,2-a]pyridin-6-yl)-2-(1-methyl-1H-pyrazol-4-yl)oxazole-4-carboxamide], the IC50 against IRAK4 [1] is 0.001 µM; on IRAK4 [2], 0.002 µM.

For `CCOc1cc2nc(CCCO)cn2cc1NC(=O)c1cccc(C(F)F)n1` [Example 23, 6-(difluoromethyl)-N-(7-ethoxy-2-(3-hydroxypropyl)imidazo[1,2-a]pyridin-6-yl)picolinamide], the IC50 on IRAK4 [1] amounted to 0.001 µM; against IRAK4 [2] it was 0.002 µM.

As for `O=C(Nc1cn2cc(C3CC3)nc2cc1N1CCN(CC(F)F)CC1)c1cccc(C(F)(F)F)n1` [Example 24, N-(2-cyclopropyl-7-(4-(2,2-difluoroethyl)piperazin-1-yl)imidazo[1,2-a]pyridin-6-yl)-6-(trifluoromethyl)picolinamide], the IC50 on IRAK4 [1] amounted to 0.002 µM; at IRAK4 [2] it was 0.004 µM.

Regarding `O=C(Nc1cn2cc(C3CC3)nc2cc1OCC1CC1)c1cccc(C(F)F)n1` [Example 25, N-(2-cyclopropyl-7-(cyclopropylmethoxy)imidazo[1,2-a]pyridin-6-yl)-6-(difluoromethyl)picolinamide], the IC50 was determined as 0.002 µM at IRAK4 [1] and 0.004 µM at IRAK4 [2].

For `O=C(Nc1cn2cc(C3CC3)nc2cc1OCC(F)(F)F)c1cccc(C(F)F)n1` [Example 26, N-(2-cyclopropyl-7-(2,2,2-trifluoroethoxy)imidazo[1,2-a]pyridin-6-yl)-6-(difluoromethyl)picolinamide], the IC50 at IRAK4 [1] is 0.003 µM; against IRAK4 [2] it was 0.007 µM.

With `CCOc1cc2nc(CCC(C)(C)O)cn2cc1NC(=O)c1cccc(C(F)F)n1` [Example 27, 6-(difluoromethyl)-N-(7-ethoxy-2-(3-hydroxy-3-methylbutyl)imidazo[1,2-a]pyridin-6-yl)picolinamide], the IC50 against IRAK4 [1] and at IRAK4 [2] was 0.001 µM throughout.

Take `CCOc1cc2nc(C3CC(F)(F)C3)cn2cc1NC(=O)c1cccc(C(F)(F)F)n1` [Example 33, N-(2-(3,3-difluorocyclobutyl)-7-ethoxyimidazo[1,2-a]pyridin-6-yl)-6-(trifluoromethyl)picolinamide]: the figures for the IC50 on IRAK4 [1] and against IRAK4 [2] were 0.003 µM and 0.011 µM, respectively.

For the compound `CCOc1cc2nc(CC)cn2cc1NC(=O)c1ccn(C(F)F)n1` [Example 44, 1-(difluoromethyl)-N-(7-ethoxy-2-ethylimidazo[1,2-a]pyridin-6-yl)-1H-pyrazole-3-carboxamide], the IC50 came out at 0.012 µM against IRAK4 [1] and 0.027 µM against IRAK4 [2].

In the case of `CCOc1cc2nc(CC)cn2cc1NC(=O)c1ccc2c(n1)CCC2` [Example 49, N-(7-ethoxy-2-ethylimidazo[1,2-a]pyridin-6-yl)-6,7-dihydro-5H-cyclopenta[b]pyridine-2-carboxamide], the concentration for half-maximal inhibition (IC50) against IRAK4 [1] was determined as 0.006 µM; at IRAK4 [2], 0.019 µM.

`CC1(COc2cc3nc(C4CC4)cn3cc2NC(=O)c2cccc(C(F)F)n2)COC1` [Example 50, N-(2-cyclopropyl-7-((3-methyloxetan-3-yl)methoxy)imidazo[1,2-a]pyridin-6-yl)-6-(difluoromethyl)picolinamide]: the IC50 at IRAK4 [1] was 0.004 µM; on IRAK4 [2], 0.014 µM.

Take `CCOCc1cn2cc(NC(=O)c3cccc(C(F)(F)F)n3)c(OCC)cc2n1` [Example 55, N-(7-ethoxy-2-(ethoxymethyl)imidazo[1,2-a]pyridin-6-yl)-6-(trifluoromethyl)picolinamide]: the IC50 against IRAK4 [1] was 0.003 µM; at IRAK4 [2], 0.015 µM.

For `CCOc1cc2nc(COC)cn2cc1NC(=O)c1cccc(C(F)(F)F)n1` [Example 56, N-(7-ethoxy-2-(methoxymethyl)imidazo[1,2-a]pyridin-6-yl)-6-(trifluoromethyl)picolinamide], the IC50 was determined as 0.005 µM against IRAK4 [1] and 0.014 µM on IRAK4 [2].

As to `CCOc1cc2nc(C(F)F)cn2cc1NC(=O)c1cccc(C(F)(F)F)n1` [Example 57, N-(2-(difluoromethyl)-7-ethoxyimidazo[1,2-a]pyridin-6-yl)-6-(trifluoromethyl)picolinamide], the IC50 against IRAK4 [1] came out at 0.003 µM; against IRAK4 [2], 0.008 µM.

As for `CCOc1cc2nc(C3CCOC3)cn2cc1NC(=O)c1cccc(C(F)(F)F)n1` (stereo not shown) [Example 59, N-(7-ethoxy-2-(tetrahydrofuran-3-yl)imidazo[1,2-a]pyridin-6-yl)-6-(trifluoromethyl)picolinamide], the IC50 is 0.002 µM against IRAK4 [1] and 0.003 µM against IRAK4 [2].

On to `CCOc1cc2nc(CC3CCCO3)cn2cc1NC(=O)c1cccc(C(F)(F)F)n1` (stereo not shown) [Example 60, N-(7-ethoxy-2-((tetrahydrofuran-2-yl)methyl)imidazo[1,2-a]pyridin-6-yl)-6-(trifluoromethyl)picolinamide], for which the IC50 on IRAK4 [1] came out at 0.002 µM; on IRAK4 [2], 0.006 µM.

For `CCOc1cc2nc(C3CNC3)cn2cc1NC(=O)c1cccc(C(F)(F)F)n1` [Example 61, N-(2-(azetidin-3-yl)-7-ethoxyimidazo[1,2-a]pyridin-6-yl)-6-(trifluoromethyl)picolinamide], the IC50 at IRAK4 [1] came out at 0.001 µM; on IRAK4 [2] it was 0.002 µM.

For the compound `CCOc1cc2nc(C3CCNC3)cn2cc1NC(=O)c1cccc(C(F)(F)F)n1` (stereo not shown) [Example 62, N-(7-ethoxy-2-(pyrrolidin-3-yl)imidazo[1,2-a]pyridin-6-yl)-6-(trifluoromethyl)picolinamide], the half-inhibitory concentration (IC50) against IRAK4 [1] and against IRAK4 [2] was 0.001 µM in each case.

For `CCOc1cc2nc(C3CN(C)C3)cn2cc1NC(=O)c1cccc(C(F)(F)F)n1` [Example 65, N-(7-ethoxy-2-(1-methylazetidin-3-yl)imidazo[1,2-a]pyridin-6-yl)-6-(trifluoromethyl)picolinamide], the IC50 against IRAK4 [1] and on IRAK4 [2] was 0.001 µM throughout.

For the origin of these results see patent publication US20220089592A1, “IMIDAZO[1,2-A]PYRIDINYL DERIVATIVES AS IRAK4 INHIBITORS” (priority 2019, published 2022).
